Here are results for 66 compounds from US7459450B2, “Neuropeptide receptor modulators” (Schering Corporation, priority 2004, dated 2008).

The first assay concerns the target T1, Human NPY Y1 receptors (Homo sapiens, UniProt P25929).
T1 construct: expressed in transfected cells; host or cells: CHO cells (membrane protein)
T1 sequence (P25929 1-384): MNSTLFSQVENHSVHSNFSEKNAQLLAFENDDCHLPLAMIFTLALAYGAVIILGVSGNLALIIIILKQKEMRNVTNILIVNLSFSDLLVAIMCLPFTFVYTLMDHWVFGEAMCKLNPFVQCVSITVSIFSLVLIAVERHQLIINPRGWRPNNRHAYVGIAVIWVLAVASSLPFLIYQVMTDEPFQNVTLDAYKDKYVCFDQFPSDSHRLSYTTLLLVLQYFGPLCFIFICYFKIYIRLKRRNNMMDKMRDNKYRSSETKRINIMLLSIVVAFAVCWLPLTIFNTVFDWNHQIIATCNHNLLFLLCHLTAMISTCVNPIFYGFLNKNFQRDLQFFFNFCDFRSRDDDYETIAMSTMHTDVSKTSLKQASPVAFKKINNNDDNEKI
In words: NPY Receptor Binding Assay.
Settings: not given
On the procedure:
NPY Receptor Binding Assay
Human NPY Y1 receptors were expressed in CHO cells. Binding assays were performed in 50 mM HEPES, pH 7.2, 2.5 mM CaCl2, 1 mM MgCl2 and 0.1% BSA containing 5-10 μg of membrane protein and 0.1 nM […] in a total volume of 200 μl. Non-specific binding was determined in the presence of 1 μM NPY. The reaction mixtures were incubated for 90 minutes at room temperature then filtered through Millipore MAFC glass fiber filter plates which had been pre-soaked in 0.5% polyethleneimine. The filters were washed with phosphate-buffered saline, and radioactivity was measured in a Packard TopCount scintillation counter.
With `CC(C)C1NC(=Nc2ccccc2CCNc2nc3ccccc3s2)SC1=O` (stereo not drawn) [Example 404], the Ki (usually the equilibrium dissociation constant of an inhibitor or competing ligand from its target) is over 10 µM.
Still for that read-out and setting: with `CS(=O)(=O)c1ccc2nc(NCCc3ccc(/N=C4\SC(=O)[C@@H]5CCCN45)cc3)sc2c1` [Example 352] the figure was over 10 µM; with `O=C(O)C[C@@H]1N/C(=N/c2ccc(CCNc3nc4ccc(Cl)cc4s3)cc2)SC1=O` [Example 358], over 10 µM.
In turn, `O=C1CN/C(=N\c2cccc(CCNc3nc4ccccc4s3)c2)S1` [Example 376] registered an inhibition constant Ki of over 10 µM.
On the same count and under the same terms, the same measure for `CSCC[C@@H]1N/C(=N/c2ccc(CCNc3nc4ccc(C)cc4s3)cc2)SC1=O` [Example 357]: 1 to 10 µM; for `COc1cccc2sc(NCCc3ccc(/N=C4\SC(=O)[C@@H]5CCCN45)cc3)nc12` [Example 366]: over 10 µM.
The same measure, in the same setting: with `CC(C)[C@@H]1N/C(=N\c2cccc(CCNc3nc4ccccc4s3)c2)SC1=O` [Example 407] the figure was over 10 µM.
Same read-out and setting: with `C[C@@H]1N/C(=N/c2ccc(CCNc3nc4ccc([N+](=O)[O-])cc4s3)cc2)SC1=O` [Example 343] the figure was over 10 µM; with `O=C(O)C[C@@H]1N/C(=N/c2ccc(CCNc3nc4ccc([N+](=O)[O-])cc4s3)cc2)SC1=O` [Example 342], over 10 µM; with `O=C(O)C[C@@H]1N/C(=N\c2cccc(CCNc3nc4ccccc4s3)c2)SC1=O` [Example 409], over 10 µM.
As for `CS(=O)(=O)c1ccc2nc(NCCc3ccc(/N=C4/N[C@@H](Cc5ccccc5)C(=O)S4)cc3)sc2c1` [Example 387], the Ki was over 10 µM.
Still for that read-out and setting: with `Cc1ccc2nc(NCCc3ccc(/N=C4/N[C@@H](CC(=O)O)C(=O)S4)cc3)sc2c1` [Example 380] the figure was over 10 µM; with `C[C@@H]1N/C(=N/c2ccc(CCNc3nc4ccc(F)cc4s3)cc2)SC1=O` [Example 403], over 10 µM; with `COc1ccc2nc(NCCc3ccc(/N=C4/N[C@@H](C)C(=O)S4)cc3)sc2c1` [Example 349], over 10 µM.
Still for that read-out and setting: the same measure for `COc1ccc2nc(NCCc3ccc(/N=C4/N[C@@H](CC(=O)O)C(=O)S4)cc3)sc2c1` [Example 348]: over 10 µM; for `COc1cccc2sc(NCCc3ccc(/N=C4/N[C@@H](Cc5ccccc5)C(=O)S4)cc3)nc12` [Example 401]: over 10 µM; for `C[C@@H]1N/C(=N/c2ccc(CCNc3nc4cc(Cl)c(Cl)cc4s3)cc2)SC1=O` [Example 393]: over 10 µM.
The same measure, in the same setting: the same measure for `CSCC[C@@H]1N/C(=N/c2ccc(CCNc3nc4ccccc4s3)cc2)SC1=O` [Example 395]: over 10 µM.
Take `O=C(O)C[C@@H]1N/C(=N\c2ccccc2CCNc2nc3ccccc3s2)SC1=O` [Example 413]: the Ki was over 10 µM.
Turning to `O=C1S/C(=N/c2ccccc2CCNc2nc3ccccc3s2)N[C@H]1Cc1ccccc1` [Example 410], the Ki was over 10 µM.
The same measure, in the same setting: the same measure for `O=C1S/C(=N\c2ccc(CCNc3nc4ccc([N+](=O)[O-])cc4s3)cc2)N[C@H]1Cc1ccccc1` [Example 355]: over 10 µM; for `Cc1ccc2nc(NCCc3ccc(/N=C4\SC(=O)[C@@H]5CCCN45)cc3)sc2c1` [Example 379]: over 10 µM; for `CC(C)C[C@@H]1N/C(=N/c2ccc(CCNc3nc4cc(Cl)c(Cl)cc4s3)cc2)SC1=O` [Example 362]: over 10 µM.
Same read-out and setting: the same measure for `COc1ccc2nc(NCCc3ccc(/N=C4/N[C@@H](CC(C)C)C(=O)S4)cc3)sc2c1` [Example 345]: over 10 µM.

The same assay, now with this note: Procedure A compounds, rated A/B/C.
In turn, `CS(=O)(=O)c1ccc2nc(NCCc3ccc(NC4=NCCS4)cc3)sc2c1` [Example 15] returned a Ki of 1 to 10 µM.
Same read-out and setting: with `Clc1ccc2nc(NCCc3ccc(NC4=NCCS4)cc3)sc2c1` [Example 19] the figure was 1 to 10 µM.

The same assay, now with this note: Procedure B compounds, rated A/B/C.
Take `CC1N=C(Nc2ccc(CCNc3nc4ccccc4s3)cc2)N(C(=O)c2ccccc2)C1c1ccccc1` (stereo not drawn) [Example 31]: the Ki is over 10 µM.
Compound `O=C(c1ccccc1)N1CC(c2ccccc2)N=C1Nc1ccc(CCNc2nc3ccccc3s2)cc1` (stereo not drawn) [Example 30] had an inhibitory constant (Ki) of over 10 µM.

The assay is the same for the next values; noted with them: Procedure C compounds, rated A/B/C.
The compound `CC(C)C[C@@H]1N=C(Nc2ccc(CCNc3nc4ccccc4s3)cc2)N(C(=O)c2ccccc2)C1=O` [Example 53] came in with an inhibition constant Ki of over 10 µM.
Regarding `CSCC[C@@H]1N=C(Nc2ccc(CCNc3nc4ccccc4s3)cc2)N(C(=O)c2ccccc2)C1=O` [Example 54], the inhibitory constant (Ki) was over 10 µM.
Same read-out and setting: the same measure for `CCOC(=O)N1C(=O)[C@H](C)N=C1Nc1ccc(CCNc2nc3ccccc3s2)cc1` [Example 37]: over 10 µM.

Staying with this assay, now noted: Procedure E compounds, rated A/B/C.
`Cc1cccc2sc(NCCc3ccc(/N=C4/NCC(C)S4)cc3)nc12` (stereo not drawn) [Example 327] had a Ki of over 10 µM.
In turn, `Cc1ccc2nc(NCCc3ccc(/N=C4/N[C@@H](Cc5c[nH]cn5)CS4)cc3)sc2c1` [Example 97] displayed an inhibitory constant (Ki) of 1 to 10 µM.
Still for that read-out and setting: the same measure for `c1ccc2sc(NCCc3ccc(/N=C4/NC5(CCCC5)CS4)cc3)nc2c1` [Example 271]: under 1 µM; for `Cc1ccc2nc(NCCc3ccc(/N=C4\SC5CCC[C@H]5N4C)cc3)sc2c1` (stereo partly drawn) [Example 223]: over 10 µM; for `COc1ccc2nc(NCCc3ccc(/N=C4\SC5Cc6ccccc6[C@@H]5N4C)cc3)sc2c1` (stereo partly drawn) [Example 77]: over 10 µM.
On the same count and under the same terms, the same measure for `CC[C@@H]1CS/C(=N\c2ccc(CCNc3nc4ccc(S(C)(=O)=O)cc4s3)cc2)N1` [Example 115]: 1 to 10 µM; for `CC(C)[C@H]1CS/C(=N\c2ccc(CCNc3nc4ccc(Cl)cc4s3)cc2)N1` [Example 107]: 1 to 10 µM.
Same read-out and setting: with `COc1ccc2nc(NCCc3ccc(/N=C4/N[C@@H](Cc5ccccc5)CS4)cc3)sc2c1` [Example 81] the figure was 1 to 10 µM; with `Cc1ccc2nc(NCCc3ccc(/N=C4\SC5Cc6ccccc6[C@@H]5N4C)cc3)sc2c1` (stereo partly drawn) [Example 222], over 10 µM; with `Clc1ccc2nc(NCCc3ccc(/N=C4/NC5(CCCC5)CS4)cc3)sc2c1` [Example 239], 1 to 10 µM.
For `CC1(C)CS/C(=N\c2ccc(CCNc3nc4ccccc4s3)cc2)N1` [Example 272], the Ki is under 1 µM.
The compound `CS(=O)(=O)c1ccc2nc(NCCc3ccc(NC4=NCCCS4)cc3)sc2c1` [Example 65] showed a Ki of 1 to 10 µM.
Take `c1ccc2c(CC3CSC(Nc4ccc(CCNc5nc6ccccc6s5)cc4)=N3)cccc2c1` (stereo not drawn) [Example 336]: the Ki is over 10 µM.
With `Cc1ccc2nc(NCCc3ccc(/N=C4/N[C@@H](C)C(c5ccccc5)S4)cc3)sc2c1` (stereo partly drawn) [Example 323], the inhibition constant Ki was over 10 µM.
Still for that read-out and setting: the same measure for `C[C@@H]1CS/C(=N\c2ccc(CCNc3nc4ccc(Cl)cc4s3)cc2)N1` [Example 109]: 1 to 10 µM; for `Clc1ccc(C2CCSC(Nc3ccc(CCNc4nc5ccccc5s4)cc3)=N2)cc1` (stereo not drawn) [Example 337]: under 1 µM.
Same read-out and setting: with `COc1ccc2nc(NCCc3ccc(/N=C4/NCC(c5ccccc5)S4)cc3)sc2c1` (stereo not drawn) [Example 85] the figure was over 10 µM; with `Cc1ccc2nc(NCCc3ccc(/N=C4\SCCN4C)cc3)sc2c1` [Example 86], over 10 µM; with `COc1ccc2nc(NCCc3ccc(/N=C4/N[C@H](CC(C)C)CS4)cc3)sc2c1` [Example 82], under 1 µM.
`CC1(C)CS/C(=N\c2ccc(CCNc3nc4ccc(Cl)cc4s3)cc2)N1` [Example 240] displayed a Ki of 1 to 10 µM.
The same measure, in the same setting: the same measure for `O=[N+]([O-])c1ccc2nc(NCCc3ccc(/N=C4/N[C@H]5c6ccccc6CC5S4)cc3)sc2c1` (stereo partly drawn) [Example 194]: over 10 µM.
On the same count and under the same terms, with `Cc1ccc2nc(NCCc3ccc(N=C4NCCCS4)cc3)sc2c1` [Example 205] the figure was under 1 µM; with `CC1(C)CS/C(=N\c2ccc(CCNc3nc4ccc(S(C)(=O)=O)cc4s3)cc2)N1` [Example 118], 1 to 10 µM.
On the same count and under the same terms, the same measure for `C[C@@H]1CS/C(=N\c2ccc(CCNc3nc4ccccc4s3)cc2)N1` [Example 268]: under 1 µM.
As for `CCC1CS/C(=N\c2ccc(CCNc3nc4ccccc4s3)cc2)N1` (stereo not drawn) [Example 263], the inhibition constant Ki was under 1 µM.

The assay is the same for the next values; noted with them: Procedure G compounds, rated A/B/C.
For `CCOC(=O)c1sc(Nc2ccc(CCNc3nc4ccccc4s3)cc2)nc1C(F)(F)F` [Example 432], the Ki was over 10 µM.
The same measure, in the same setting: with `c1ccc(-c2ccc(-c3csc(Nc4ccc(CCNc5nc6ccccc6s5)cc4)n3)cc2)cc1` [Example 419] the figure was over 10 µM.
`CCOC(=O)c1sc(Nc2ccc(CCNc3nc4ccccc4s3)cc2)nc1C` [Example 427] gave an inhibition constant (Ki) of over 10 µM.
`c1ccc2cc(-c3csc(Nc4ccc(CCNc5nc6ccccc6s5)cc4)n3)ccc2c1` [Example 422]: the Ki was over 10 µM.
The compound `O=C(O)c1csc(Nc2ccc(CCNc3nc4ccccc4s3)cc2)n1` [Example 435] showed an inhibition constant (Ki) of over 10 µM.
`CCOC(=O)CC(C)(C)c1csc(Nc2ccc(CCNc3nc4ccccc4s3)cc2)n1` [Example 434]: the Ki is over 10 µM.

The same assay, now with this note: Procedure H compounds, rated A/B/C.
For the compound `O=C1N=C(Nc2ccc(CCNc3nc4ccccc4s3)cc2)SC1c1ccccc1` (stereo not drawn) [Example 444], the Ki is over 10 µM.

Still in this assay, the particulars now being: Table 1, rated A/B/C.
As for `CC(C)C1CCSC(Nc2ccc(CCNc3nc4ccccc4s3)cc2)=N1` (stereo not drawn) [Example 10], the inhibition constant (Ki) is under 1 µM.
Turning to `Brc1ccc(C2CCSC(Nc3ccc(CCNc4nc5ccccc5s4)cc3)=N2)cc1` (stereo not drawn) [Example 5], the Ki is under 1 µM.
On the same count and under the same terms, the same measure for `c1ccc([C@H]2CSC(Nc3ccc(CCNc4nc5ccccc5s4)cc3)=N2)cc1` [Example 8]: 1 to 10 µM.
